From patent US11414424B2, “Cardiac sarcomere inhibitors” (Cytokinetics, Inc., priority 2018, dated 2022)

Test system: bovine cardiac myofibrils
Test: Myofibril assay: PK/LDH-coupled steady-state ATPase activity of skinned bovine cardiac myofibrils
Format: biochemical
Conditions: Ca2+ activating to 75% of maximal rate
Outline: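 Steady-state ATPase of detergent-skinned bovine left-ventricular myofibrils (1 mg/mL), PK/LDH-coupled NADH read at 340 nm, in PIPES/MgCl2 buffer pH 6.8 with 50 μM ATP, 0.6 mM EGTA and CaCl2 set for 50% or 75% activation. Inhibition of activity measured.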

| Compound | CDMF75 IC15 [µM] |
| --- | --- |
| Cc1ccc(CN2C(=O)CN(C(C)C)C(=O)C2c2ccc(Cl)cc2)cc1 (stereo not shown) [Compound 305, 3-(4-chlorophenyl)-1-isopropyl-4-(4-methylbenzyl)piperazine-2,5-dione] | 6.0 |
| CC(C)N1CC(=O)N(Cc2cccc(C#N)c2)C(c2ccc(Cl)cc2)C1=O (stereo not shown) [Compound 306, 3-((2-(4-chlorophenyl)-4-isopropyl-3,6-dioxo-piperazin-1-yl)methyl)-benzonitrile] | 27.0 |
| CC(C)N1CC(=O)N(Cc2ccc(C#N)cc2)C(c2ccc(Cl)cc2)C1=O (stereo not shown) [Compound 307, 4-((2-(4-chlorophenyl)-4-isopropyl-3,6-dioxo-piperazin-1-yl)methyl)-benzonitrile] | 36.7 |
| CC(C)N1CC(=O)N(Cc2cccc(C(F)(F)F)c2)C(c2ccc(Cl)cc2)C1=O (stereo not shown) [Compound 308, 3-(4-chlorophenyl)-1-isopropyl-4-(3-(trifluoro-methyl)benzyl)piperazine-2,5-dione] | 22.7 |
| CC(C)N1CC(=O)N(Cc2ccc(C(F)(F)F)cc2)C(c2ccc(Cl)cc2)C1=O (stereo not shown) [Compound 309, 3-(4-chlorophenyl)-1-isopropyl-4-(4-(trifluoro-methyl)benzyl)piperazine-2,5-dione] | 2.8 |
| CC(C)N1CC(=O)N(Cc2ccc(Cl)cc2)C(c2ccccc2Cl)C1=O (stereo not shown) [Compound 310, 4-(4-chlorobenzyl)-3-(2-chlorophenyl)-1-isopropylpiperazine-2,5-dione] | 13.1 |
| CC(C)N1CC(=O)N(Cc2ccc(Cl)cc2)C(c2ccc(F)cc2)C1=O (stereo not shown) [Compound 311, 4-(4-chlorobenzyl)-3-(4-fluorophenyl)-1-isopropylpiperazine-2,5-dione] | 5.9 |
| CC(C)N1CC(=O)N(Cc2ccc(Cl)cc2)C(c2cccc(Cl)c2)C1=O (stereo not shown) [Compound 312, 4-(4-chlorobenzyl)-3-(3-chlorophenyl)-1-isopropylpiperazine-2,5-dione] | 4.9 |
| COc1ccc(C2C(=O)N(C(C)C)CC(=O)N2Cc2ccc(Cl)cc2)cc1 (stereo not shown) [Compound 313, 4-(4-chlorobenzyl)-1-isopropyl-3-(4-methoxy-phenyl)piperazine-2,5-dione] | 3.9 |
| CC(C)N1CC(=O)N(Cc2ccc(Cl)cc2)C(c2ccc(C(F)(F)F)cc2)C1=O (stereo not shown) [Compound 314, 4-(4-chlorobenzyl)-1-isopropyl-3-(4-(trifluoro-methyl)phenyl)piperazine-2,5-dione] | 8.4 |
| CC(C)N1CC(=O)N(Cc2ccc(C(F)(F)F)cn2)C(c2ccc(Cl)cc2)C1=O (stereo not shown) [Compound 315, 3-(4-chlorophenyl)-1-isopropyl-4-((5-(trifluoromethyl)pyridin-2-yl)methyl)piperazine-2,5-dione] | 28.9 |
| CC(C)N1CC(=O)N(Cc2ccc(Cl)cc2)C(C)(c2ccc(Cl)cc2)C1=O (stereo not shown) [Compound 316, 4-(4-chlorobenzyl)-3-(4-chlorophenyl)-1-isopropyl-3-methylpiperazine-2,5-dione] | 14.3 |
| CC(C)N1CC(=O)N(Cc2ccc(Cl)cc2)C2(Cc3ccccc3C2)C1=O [Compound 317, 1′-(4-chlorobenzyl)-4′-isopropyl-1,3-dihydrospiro[indene-2,2′-piperazine]-3′,6′-dione] | 2.3 |
| CC(C)N1CC(=O)N(Cc2ccc(Cl)cc2)C2(CC(c3ccccc3)C2)C1=O (stereo not shown) [Compound 318, 5-(4-chlorobenzyl)-8-isopropyl-2-phenyl-5,8-diazaspiro[3.5]nonane-6,9-dione] | 7.3 |
| CC(C)N1CC(=O)N(Cc2ccc(C(F)(F)F)cc2)C2(CCc3ccccc32)C1=O (stereo not shown) [Compound 319, 4′-isopropyl-1′-(4-(trifluoromethyl)benzyl)-2,3-dihydrospiro[indene-1,2′-piperazine]-3′,6′-dione] | 24.0 |
| CNC(=O)N1CC2(C1)C(=O)N(C(C)CC#N)CC(=O)N2Cc1ccc(C(F)(F)F)cc1 (stereo not shown) [Compound 320, 8-(1-cyanopropan-2-yl)-N-methyl-6,9-dioxo-5-(4-(trifluoromethyl)benzyl)-2,5,8-triazaspiro[3.5]nonane-2-carboxamide] | 17.8 |
| CNC(=O)N1CC2(C1)C(=O)N([C@H]1CC[C@@H](C#N)C1)CC(=O)N2Cc1ccc(C(F)(F)F)cc1 [Compound 321, 8-((1S,3R)-3-cyano-cyclopentyl)-N-methyl-6,9-dioxo-5-(4-(trifluoromethyl)benzyl)-2,5,8-triazaspiro[3.5]-nonane-2-carboxamide] | 22.1 |

| Compound | CDMF75 IC15 [µM] |
| --- | --- |
| CC(=O)N1CC2(C1)C(=O)N([C@H]1CC[C@H](C)CC1)CC(=O)N2Cc1ccc(C(F)(F)F)cc1 [Compound 322, 2-acetyl-8-((1r,4r)-4-methylcyclohexyl)-5-(4-(trifluoromethyl)benzyl)-2,5,8-triazaspiro[3.5]-nonane-6,9-dione] | 10.8 |
| CCC1CCC(N2CC(=O)N(Cc3ccc(C(F)(F)F)cc3)C3(CN(C(C)=O)C3)C2=O)CC1 (stereo not shown) [Compound 323, 2-acetyl-8-(4-ethylcyclo-hexyl)-5-(4-(trifluoro-methyl)benzyl)-2,5,8-triazaspiro[3.5]nonane-6,9-dione] | 6.4 |
| CC(=O)N1CC2(C1)C(=O)N(C1CCC(C(F)F)CC1)CC(=O)N2Cc1ccc(C(F)(F)F)cc1 (stereo not shown) [Compound 324, 2-acetyl-8-(4-(difluoro-methyl)cyclohexyl)-5-(4-(trifluoromethyl)benzyl)-2,5,8-triazaspiro[3.5]-nonane-6,9-dione] | 11.5 |
| CC(=O)N1CC2(C1)C(=O)N([C@H]1CC[C@H](C#N)CC1)CC(=O)N2Cc1ccc(C(F)(F)F)cc1 [Compound 325, (1r,4r)-4-(2-acetyl-6,9-dioxo-5-(4-(trifluoromethyl)benzyl)-2,5,8-triazaspiro[3.5]nonan-8-yl)cyclohexane-l-carbonitrile] | 22.8 |
| CC(=O)N1CC2(C1)C(=O)N(C1CCCCCC1)CC(=O)N2Cc1ccc(C(F)(F)F)cc1 [Compound 326, 2-acetyl-8-cycloheptyl-5-(4-(trifluoromethyl)benzyl)-2,5,8-triazaspiro[3.5]-nonane-6,9-dione] | 23.7 |
| CC(C)N1CC(=O)N(Cc2ccc(C(F)(F)F)cc2)C2(CCN(c3ccccc3)C2=O)C1=O (stereo not shown) [Compound 327, 9-isopropyl-2-phenyl-6-(4-(trifluoromethyl)benzyl)-2,6,9-triazaspiro[4.5]decane-1,7,10-trione] | 9.8 |
| CC(C)N1CC(=O)N([C@@H](C)c2ccc(C(F)(F)F)cc2)C2(CN(c3ccccc3)C2)C1=N [Compound 328, (S)-9-imino-8-isopropyl-2-phenyl-5-(1-(4-(trifluoromethyl)phenyl)ethyl)-2,5,8-triazaspiro[3.5]nonan-6-one] | 19.3 |
| CC(C)N1C(=O)C2(CN(c3ccccc3)C2)N(Cc2ccc(Cl)cc2)C(=O)C1C (stereo not shown) [Compound 329, 5-(4-chlorobenzyl)-8-isopropyl-7-methyl-2-phenyl-2,5,8-triazaspiro-[3.5]nonane-6,9-dione] | 9.3 |
| CC(C)N1CC(=O)N(Cc2ccc(Cl)cc2)C2(CCN(c3cnn(C)c3)C2=O)C1=O (stereo not shown) [Compound 330, 6-(4-chlorobenzyl)-9-isopropyl-2-(1-methyl-1H-pyrazol-4-yl)-2,6,9-triazaspiro[4.5]decane-1,7,10-trione] | 10.7 |
| CC(C)N1CC(=O)N(Cc2ccc(Cl)cc2)C2(CC(=O)N(c3ccccc3)C2)C1=O (stereo not shown) [Compound 331, 6-(4-chlorobenzyl)-9-isopropyl-2-phenyl-2,6,9-triazaspiro[4.5]decane-3,7,10-trione] | 30.9 |
| CC(C)N1CC(=O)N(Cc2ccc(Cl)cc2)C2(CC(=O)N(c3ccccn3)C2)C1=O (stereo not shown) [Compound 332, 6-(4-chlorobenzyl)-9-isopropyl-2-(pyridin-2-yl)-2,6,9-triazaspiro[4.5]decane-3,7,10-trione] | 16.6 |
| Cc1cc(N2CCC3(C2=O)C(=O)N(C(C)C)CC(=O)N3Cc2ccc(Cl)cc2)ccn1 (stereo not shown) [Compound 333, 6-(4-chlorobenzyl)-9-isopropyl-2-(2-methyl-pyridin-4-yl)-2,6,9-triazaspiro[4.5]decane-1,7,10-trione] | 16.6 |
| CNC(=O)N1CCC2(C1)C(=O)N(Cc1ccc(OC)cc1)CC(=O)N2Cc1ccc(Cl)cc1 (stereo not shown) [Compound 334, 6-(4-chlorobenzyl)-9-(4-methoxybenzyl)-N-methyl-7,10-dioxo-2,6,9-triazaspiro[4.5]decane-2-carboxamide] | 8.0 |
| CNC(=O)N1CC2(C1)C(=O)N(Cc1ccc(C(F)(F)F)cc1)CC(=O)N2Cc1ccc(C(F)(F)F)cc1 [Compound 335, N-methyl-6,9-dioxo-5,8-bis(4-(trifluoromethyl)benzyl)-2,5,8-triazaspiro[3.5]nonane-2-carboxamide] | 12.2 |
| CNC(=O)N1CC2(C1)C(=O)N(Cc1ccc(C#N)cc1)CC(=O)N2Cc1ccc(C(F)(F)F)cc1 [Compound 336, 8-(4-cyanobenzyl)-N-methyl-6,9-dioxo-5-(4-(trifluoromethyl)benzyl)-2,5,8-triazaspiro[3.5]nonane-2-carboxamide] | 1.1 |
| CNC(=O)N1CC2(C1)C(=O)N(Cc1ccc(Cl)cc1)CC(=O)N2Cc1ccc(C(F)(F)F)cc1 [Compound 337, 8-(4-chlorobenzyl)-N-methyl-6,9-dioxo-5-(4-(trifluoromethyl)benzyl)-2,5,8-triazaspiro[3.5]-nonane-2-carboxamide] | 1.63 |
| CNC(=O)N1CC2(C1)C(=O)N(C(C)c1ccc(C#N)cc1)CC(=O)N2Cc1ccc(C(F)(F)F)cc1 (stereo not shown) [Compound 338, 8-(1-(4-cyanophenyl)ethyl)-N-methyl-6,9-dioxo-5-(4-(trifluoromethyl)benzyl)-2,5,8-triazaspiro[3.5]nonane-2-carboxamide] | 1.51 |
